Assay results: BigSolDB 2.1

CC(=O)c1c(C)c2cnc(Nc3ccc(N4CCNCC4)cn3)nc2n(C2CCCC2)c1=O
solubility (mole fraction)
Details | 293.15 K | 298.15 K | 303.15 K | 308.15 K | 313.15 K | 318.15 K | 323.15 K | 328.15 K | 333.15 K
in DMF | 6.17e-05 | 8.25e-05 | 0.000103 | 0.000131 | 0.000166 | 0.000202 | 0.000246 | 0.000293 | 0.000351
in DMSO | 6.57e-05 | 7.82e-05 | 9.62e-05 | 0.00012 | 0.000146 | 0.000172 | 0.000198 | 0.000246 | 0.000302
in THF | 7.14e-05 | 9.81e-05 | 0.000143 | 0.000189 | 0.00025 | 0.000329 | 0.000417 | 0.000536 | 0.000696
in acetone | 5.73e-05 | 7.32e-05 | 9.12e-05 | 0.000111 | 0.000138 | 0.000165 | 0.000199 | 0.000238 | 0.000278
in anisole | 1.32e-05 | 1.41e-05 | 1.51e-05 | 1.67e-05 | 1.79e-05 | 1.87e-05 | 1.98e-05 | 2.02e-05 | 2.17e-05
in chlorobenzene | 3.96e-05 | 5.28e-05 | 6.9e-05 | 8.91e-05 | 0.000116 | 0.000148 | 0.000189 | 0.000239 | 0.000302
in ethanol | 2.11e-05 | 2.66e-05 | 3.03e-05 | 3.61e-05 | 4.12e-05 | 4.81e-05 | 5.6e-05 | 6.41e-05 | 7.27e-05
in ethyl acetate | 1.44e-05 | 1.6e-05 | 2.06e-05 | 2.4e-05 | 3.08e-05 | 3.63e-05 | 4.42e-05 | 5.13e-05 | 5.98e-05
in m-xylene | 3.74e-05 | 4.12e-05 | 5.23e-05 | 6.44e-05 | 8.24e-05 | 9.8e-05 | 0.000119 | 0.000147 | 0.000171
in methanol | 1.1e-05 | 1.43e-05 | 1.97e-05 | 2.54e-05 | 3.43e-05 | 4.52e-05 | 5.71e-05 | 7.15e-05 | 9.01e-05
in o-xylene | 3.21e-05 | 3.62e-05 | 4.29e-05 | 4.88e-05 | 5.57e-05 | 6.38e-05 | 7.18e-05 | 8.16e-05 | 9.67e-05
in pyridine | 9.37e-05 | 0.000111 | 0.000127 | 0.000142 | 0.000159 | 0.000177 | 0.000196 | 0.000215 | 0.000236
in toluene | 4.72e-05 | 5.67e-05 | 6.78e-05 | 8.01e-05 | 9.44e-05 | 0.00011 | 0.000129 | 0.000152 | 0.000178
in water | 9.4e-06 | 1.18e-05 | 1.35e-05 | 1.7e-05 | 2.11e-05 | 2.52e-05 | 3.01e-05 | 3.63e-05 | 4.34e-05
